In DBAASP:
≈ marks a conversion by molar mass, not a printed value. Where “and” joins values, the source holds several entries; their conditions need not be identical. Equal values may be shown once.

What was measured:
Assay in all cases: ≥ marks a high value that may be exact or a test limit, other limits are often not marked, values filed in µg/mL are converted to µM
[1] = system: Pseudomonas aeruginosa 253
[2] = system: Pseudomonas aeruginosa 910
[3] = system: Pseudomonas aeruginosa 919
[4] = system: Pseudomonas aeruginosa PAO1
[5] = system: Pseudomonas aeruginosa ATCC 47085
[6] = system: Staphylococcus aureus ATCC 25923
Escherichia coli MG1655 = system: Escherichia coli MG1655
[7] = system: Klebsiella pneumoniae ATCC 700603
[8] = system: Pseudomonas aeruginosa ATCC 10145
[9] = system: Candida albicans ATCC 10231
[10] = system: Enterococcus faecalis ATCC 29212
[11] = system: Escherichia coli ATCC 25922
[12] = system: Pseudomonas aeruginosa ATCC 15422
[13] = system: Staphylococcus epidermidis KCTC 1917
[14] = system: Candida albicans NCTC 1467
[15] = system: Enterococcus faecalis NCTC 12697
[16] = system: Escherichia coli NCTC 10418
[17] = system: Klebsiella pneumoniae ATCC 43816
[18] = system: Pseudomonas aeruginosa ATCC 27853
[19] = system: Staphylococcus aureus NCTC 10788
[20] = system: Staphylococcus aureus NCTC 12493
[21] = system: Candida albicans ATCC 24433
[22] = system: Candida parapsilosis ATCC 22019
Escherichia coli = system: Escherichia coli
Staphylococcus aureus = system: Staphylococcus aureus
[23] = system: Trichophyton rubrum ATCC 28189
[24] = system: Candida albicans ATCC 14053
[25] = system: Escherichia coli ATCC 11775
[26] = system: Micrococcus luteus ATCC 49732
[27] = system: Staphylococcus aureus ATCC 12600

Compound `CC[C@H](C)[C@H](N)C(=O)N[C@@H](CC(C)C)C(=O)N[C@@H](CCCCN)C(=O)N[C@@H](Cc1c[nH]c2ccccc12)C(=O)N[C@@H](CCCCN)C(=O)N[C@H](C(=O)N[C@@H](CCCCN)C(=O)N[C@@H](Cc1c[nH]c2ccccc12)C(=O)N[C@@H](Cc1c[nH]c2ccccc12)C(=O)N[C@@H](CCCCN)C(=O)N[C@@H](Cc1c[nH]c2ccccc12)C(=O)N[C@@H](Cc1ccccc1)C(=O)N[C@@H](CCCN=C(N)N)C(N)=O)[C@@H](C)O` [ILKWKTKWWKWFR] has an MIC [1] of 4 µM (≈ 7.62 µg/mL), an MIC [2] of 4 µM (≈ 7.62 µg/mL) and an MIC [3] of 16 µM (≈ 30.5 µg/mL). For the same compound, the MIC [4] was 2 µM (≈ 3.81 µg/mL).

`CC[C@H](C)[C@H](NC(=O)[C@H](CCCN=C(N)N)NC(=O)[C@H](CCC(N)=O)NC(=O)[C@@H](NC(=O)[C@@H](NC(=O)[C@@H](N)CCCN=C(N)N)[C@@H](C)CC)C(C)C)C(=O)N[C@@H](CC(C)C)C(=O)N[C@@H](CCCCN)C(=O)N[C@@H](Cc1c[nH]c2ccccc12)C(=O)N[C@@H](CC(C)C)C(=O)N[C@@H](CCCCN)C(=O)N[C@@H](CCCCN)C(=O)N[C@@H](Cc1c[nH]c2ccccc12)C(=O)N[C@@H](Cc1ccc(O)cc1)C(=O)N[C@@H](CCCCN)C(=O)N[C@@H](CC(C)C)C(=O)NCC(=O)N[C@@H](CCCCN)C(N)=O` [RIVQRILKWLKKWYKLGK] was tested, and the MIC [5] was 27 µM (≈ 63.6 µg/mL) and the MIC [6] was 13.6 µM (≈ 32 µg/mL).

Work on `CC(C)C[C@H](NC(=O)[C@H](Cc1c[nH]c2ccccc12)NC(=O)[C@H](Cc1cnc[nH]1)NC(=O)[C@H](CCCCN)NC(=O)[C@H](CC(C)C)NC(=O)[C@H](C)NC(=O)[C@H](CC(C)C)NC(=O)[C@H](CCCCN)NC(=O)CNC(=O)[C@@H](NC(=O)[C@@H](NC(=O)[C@@H](N)CCCCN)[C@@H](C)O)C(C)C)C(=O)O` [KTVGKLALKHWL] yielded an MIC (Escherichia coli MG1655) of 15 µM (≈ 20.9 µg/mL), an MIC [7] greater than 15 µM and an MIC [8] of 15 µM (≈ 20.9 µg/mL). It also gave an MIC [6] greater than 15 µM.

For `CC(C)C[C@H](NC(=O)CNC(=O)[C@H](Cc1ccc(O)cc1)NC(=O)[C@H](C)NC(=O)[C@@H]1CCCN1C(=O)[C@H](CC(C)C)NC(=O)[C@H](CCC(=O)O)NC(=O)[C@H](Cc1ccccc1)NC(=O)[C@H](Cc1cnc[nH]1)NC(=O)[C@H](CO)NC(=O)[C@@H](N)CCCCN)C(=O)O` [KSHFELPAYGL], the MIC [9] was greater than 500 µM, the MIC [10] was 422 µM and 405 µM and 252 µM and the MIC [11] was greater than 500 µM. For the same compound, the MIC [12] was no less than 500 µM and the MIC [13] was no less than 267 µM.

For `CSCC[C@H](NC(=O)[C@H](CCC(=O)O)NC(=O)[C@H](CCCCN)NC(=O)[C@H](CC(C)C)NC(=O)[C@H](CCCCN)NC(=O)CNC(=O)[C@H](Cc1c[nH]c2ccccc12)NC(=O)[C@H](CC(C)C)NC(=O)[C@@H](N)CO)C(=O)N[C@@H](CC(C)C)C(=O)N[C@@H](C)C(=O)N[C@@H](C)C(=O)N[C@@H](C)C(=O)NCC(=O)N[C@@H](CCCCN)C(=O)N[C@@H](C)C(=O)N[C@H](C(=O)N[C@@H](C)C(=O)N[C@@H](CC(N)=O)C(=O)N[C@@H](C)C(=O)N[C@H](C(=O)N[C@@H](CC(N)=O)C(=O)NCC(=O)N[C@@H](CC(C)C)C(=O)N[C@@H](C)C(=O)N[C@@H](CC(N)=O)C(=O)N[C@@H](CCC(N)=O)C(N)=O)C(C)C)C(C)C` [SLWGKLKEMLAAAGKAVANAVNGLANQ], the MIC [14] was no less than 64 µM, the MIC [15] was no less than 32 µM and the MIC [16] was 8 µM (≈ 21.8 µg/mL). For the same compound, the MIC [17] was no less than 32 µM, the MIC [18] was 32 µM (≈ 87.2 µg/mL) and the MIC [19] was 8 µM (≈ 21.8 µg/mL). The MIC [20] was 16 µM (≈ 43.6 µg/mL).

Compound `CC[C@H](C)[C@H](NC(=O)[C@H](CC(C)C)NC(=O)[C@H](CO)NC(=O)[C@@H](N)CCCN=C(N)N)C(=O)N[C@H](C(=O)N[C@@H](Cc1cnc[nH]1)C(=O)N[C@@H](CCC(N)=O)C(=O)N[C@@H](CCCN=C(N)N)C(=O)N[C@@H](CC(C)C)C(=O)N[C@@H](Cc1ccccc1)C(N)=O)C(C)C` [RSLIVHQRLF] has an MIC [21] of no less than 315 µM, an MIC [22] of no less than 315 µM and an MIC (Escherichia coli) greater than 315 µM. For the same compound, the MIC (Staphylococcus aureus) was greater than 315 µM and the MIC [23] was no less than 315 µM.

With `CC[C@H](C)[C@H](NC(=O)[C@@H](N)Cc1ccccc1)C(=O)N[C@@H](CCCCN)C(=O)N[C@@H](Cc1c[nH]c2ccccc12)C(=O)N[C@@H](CCCN=C(N)N)C(=O)N[C@@H](Cc1ccccc1)C(=O)N[C@@H](CCCN=C(N)N)C(=O)N[C@@H](CCCN=C(N)N)C(=O)N[C@@H](Cc1c[nH]c2ccccc12)C(=O)N[C@@H](CCCCN)C(=O)N[C@@H](CCCCN)C(=O)N[C@@H](CCCN=C(N)N)C(=O)N[C@H](C(N)=O)[C@@H](C)O` [FIKWRFRRWKKRT] the MIC [1] was 16 µM (≈ 30.5 µg/mL), the MIC [2] was 8 µM (≈ 15.3 µg/mL) and the MIC [3] was no less than 32 µM. For the same compound, the MIC [4] was 4 µM (≈ 7.63 µg/mL).

Work on `CC(C)C[C@H](NC(=O)[C@H](CO)NC(=O)[C@@H](NC(=O)[C@@H](N)CCC(=O)O)C(C)C)C(=O)N[C@@H](CC(N)=O)C(=O)N[C@@H](CO)C(=O)NCC(=O)N[C@@H](Cc1ccc(O)cc1)C(=O)N[C@@H](Cc1ccc(O)cc1)C(=O)O` [EVSLNSGYY] yielded an MIC [24] of no less than 291 µM, an MIC [25] of no less than 97 µM and an MIC [26] of no less than 97 µM. For the same compound, the MIC [27] was no less than 97 µM.

`CC[C@H](C)[C@H](NC(=O)[C@H](CC(C)C)NC(=O)[C@H](C)NC(=O)[C@H](CO)NC(=O)[C@H](CCCN=C(N)N)NC(=O)[C@@H](N)CO)C(=O)N[C@H](C(=O)N[C@@H](Cc1cnc[nH]1)C(=O)N[C@@H](CCC(N)=O)C(=O)N[C@@H](CCCN=C(N)N)C(=O)N[C@@H](CC(C)C)C(=O)N[C@@H](Cc1ccccc1)C(N)=O)C(C)C` [SRSALIVHQRLF] gave an MIC [21] of no less than 280 µM, an MIC [22] of no less than 280 µM and an MIC (Escherichia coli) greater than 280 µM. For the same compound, the MIC (Staphylococcus aureus) was greater than 280 µM and the MIC [23] was no less than 280 µM.

`CC(C)[C@H](NC(=O)[C@H](C)NC(=O)[C@@H](NC(=O)CNC(=O)[C@@H]1CCCN1)[C@@H](C)O)C(=O)N[C@@H](Cc1ccccc1)C(=O)N[C@@H](CCCCN)C(=O)O` [PGTAVFK] gave an MIC [24] of no less than 201 µM, an MIC [25] of 31 µM (≈ 22.3 µg/mL) and an MIC [26] of 31 µM (≈ 22.3 µg/mL). It also gave an MIC [27] of 31 µM (≈ 22.3 µg/mL).

In the case of `CC[C@H](C)[C@H](NC(=O)[C@H](CCCN=C(N)N)NC(=O)[C@H](CCC(N)=O)NC(=O)[C@@H](NC(=O)[C@@H](NC(=O)[C@@H](N)CCCN=C(N)N)[C@@H](C)CC)C(C)C)C(=O)N[C@@H](C)C(=O)N[C@@H](CCCCN)C(=O)N[C@@H](Cc1c[nH]c2ccccc12)C(=O)N[C@@H](C)C(=O)N[C@@H](CCCCN)C(=O)N[C@@H](CCCCN)C(=O)N[C@@H](Cc1c[nH]c2ccccc12)C(=O)N[C@@H](Cc1ccc(O)cc1)C(=O)N[C@@H](CCCCN)C(=O)N[C@@H](C)C(=O)NCC(=O)N[C@@H](CCCCN)C(N)=O` [RIVQRIAKWAKKWYKAGK], the MIC [5] was no less than 55 µM and the MIC [6] was 13.7 µM (≈ 30.5 µg/mL).

`CC[C@H](C)[C@@H]1NC(=O)[C@H](CC(C)C)NC(=O)[C@@H](NC(=O)[C@@H](NC(=O)[C@@H](NC(=O)[C@H](C)NC(=O)CNC(=O)[C@H](CC(C)C)NC(=O)[C@H](C)NC(=O)[C@@H](N)Cc2ccccc2)C(C)C)[C@@H](C)O)CSSC[C@@H](C(=O)N[C@@H](CCCCN)C(=O)N[C@H](C(=O)N[C@@H](CC(C)C)C(=O)N2CCC[C@H]2C(=O)N[C@@H](CCCCN)C(=O)N[C@@H](CC(C)C)C(=O)N[C@@H](Cc2ccccc2)C(=O)O)C(C)C)NC(=O)[C@H](CCCCN)NC(=O)[C@H]([C@@H](C)O)NC(=O)[C@H](CCCN=C(N)N)NC1=O` [FALGAVTCLIRTKCKVLPKLF] gave an MIC [14] of no less than 128 µM, an MIC [16] of no less than 64 µM and an MIC [17] of no less than 128 µM. The MIC [18] was greater than 128 µM, the MIC [19] was no less than 128 µM and the MIC [20] was no less than 128 µM.
